molecular target: T1, RORgT (Homo sapiens, UniProt P51449); experiment: RORgT Gal4 Luciferase Reporter Gene Assay; format: cell-based; details: engineered Jurkat cells overexpressing RORgT (LBD or full length) with Gal4 Luc reporter; 18 hours at 37° C.; 40 μM to 0.67 nM; read-out: RORg_GAL4 EC50
T1 construct: Gal4 (fusion partner); expressed in transfected cells; host or cells: engineered Jurkat cells (Jurkat pEx/Gal/hRORγ CLBD/HYG pG5luc/blast)
T1 sequence (P51449 267-516): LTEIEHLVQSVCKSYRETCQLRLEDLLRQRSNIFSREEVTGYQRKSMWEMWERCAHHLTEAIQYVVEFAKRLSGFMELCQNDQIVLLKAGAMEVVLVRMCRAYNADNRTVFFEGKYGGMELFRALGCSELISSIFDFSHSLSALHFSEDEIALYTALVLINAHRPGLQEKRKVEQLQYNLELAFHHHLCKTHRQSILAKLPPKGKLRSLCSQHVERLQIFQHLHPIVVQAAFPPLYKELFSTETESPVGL
Description: The compound and the cells were incubated for 18 hours at 37° C. in a cell culture incubator. Cells were then lysed with 15 uL of Steady-Glo Luciferase Assay reagent (Promega EZ550), followed by centrifuging the assay plates at 1500 RPM for 1 minute. Subsequently, the plates were read on the Envision (PerkinElmer). The inhibition of constitutive activity of RORgT achieved by graded concentrations of compound was calculated as a percentage of the luminescence signal window reduction over a control compound.

EC50	Structure (SMILES)
1120 nM	COc1ccc(Oc2c(Cl)cc(NC(=O)Cc3cccnc3)cc2Cl)cc1C1CC1 [Example 37, N-(3,5-dichloro-4-(3-cyclopropyl-4-methoxyphenoxy)phenyl)-2-(pyridin-3-yl)acetamide]
30 nM	COc1ccc(Oc2c(Cl)cc(NC(=O)Cc3ccc(S(C)(=O)=O)cc3)cc2Cl)cc1C(C)C [Example 38, N-(3,5-dichloro-4-(3-isopropyl-4-methoxyphenoxy)phenyl)-2-(4-(methylsulfonyl)phenyl)acetamide]
3130 nM	COc1ccc(Oc2c(F)cc(NC(=O)Cc3cccnc3)cc2F)cc1C1CC1 [Example 39, N-(4-(3-cyclopropyl-4-methoxyphenoxy)-3,5-difluorophenyl)-2-(pyridin-3-yl)acetamide]
2450 nM	COc1ccc(Oc2c(F)cc(NC(=O)Cc3cccnc3)cc2F)cc1C(C)C [Example 40, N-(3,5-difluoro-4-(3-isopropyl-4-methoxyphenoxy)phenyl)-2-(pyridin-3-yl)acetamide]
120 nM	COc1ccc(Oc2c(Cl)cc(NC(=O)C[C@H]3CCCN(S(C)(=O)=O)C3)cc2Cl)cc1C(C)C [Example 44, (R)—N-(3,5-dichloro-4-(3-isopropyl-4-methoxyphenoxy)phenyl)-2-(1-(methylsulfonyl)piperidin-3-yl)acetamide]
18 nM	COc1ccc(Oc2c(Cl)cc(NC(=O)CC3CCN(S(C)(=O)=O)CC3)cc2Cl)cc1C(C)C [Example 45, N-(3,5-dichloro-4-(3-isopropyl-4-methoxyphenoxy)phenyl)-2-(1-(methylsulfonyl)piperidin-4-yl)acetamide]
438 nM	COc1ccc(Oc2c(Cl)cc(NC(=O)CC3CCN(S(N)(=O)=O)CC3)cc2Cl)cc1C(C)C [Example 46, N-(3,5-dichloro-4-(3-isopropyl-4-methoxyphenoxy)phenyl)-2-(1-sulfamoylpiperidin-4-yl)acetamide]
105 nM	COc1ccc(Oc2c(Cl)cc(NC(=O)CN3CCN(S(N)(=O)=O)CC3)cc2Cl)cc1C(C)C [Example 48, N-(3,5-dichloro-4-(3-isopropyl-4-methoxyphenoxy)phenyl)-2-(4-sulfamoylpiperazin-1-yl)acetamide]
344 nM	Cc1ccc(Oc2c(Cl)cc(NC(=O)Cc3cccnc3)cc2Cl)cc1C(C)C [Example 49, N-(3,5-dichloro-4-(3-isopropyl-4-methylphenoxy)phenyl)-2-(pyridin-3-yl)acetamide]
75 nM	CCOc1ccc(Oc2c(Cl)cc(NC(=O)Cc3cccnc3)cc2Cl)cc1C(C)C [Example 50, N-(3,5-dichloro-4-(4-ethoxy-3-isopropylphenoxy)phenyl)-2-(pyridin-3-yl)acetamide]
1.7 nM	CC1(c2cc(F)cc(Oc3c(Cl)cc(NC(=O)CC4CCN(S(C)(=O)=O)CC4)cc3Cl)c2)CC1 [Example 51, N-(3,5-dichloro-4-(3-fluoro-5-(1-methylcyclopropyl)phenoxy)phenyl)-2-(1-(methylsulfonyl)piperidin-4-yl)acetamide]
28 nM	CC1(c2cc(F)cc(Oc3c(Cl)ccc(C(=O)NCC4CCN(S(C)(=O)=O)CC4)c3Cl)c2)CC1 [Example 52, 2,4-dichloro-3-(3-fluoro-5-(1-methylcyclopropyl)phenoxy)-N-((1-(methylsulfonyl)piperidin-4-yl)methyl)benzamide]
40 nM	CC(C)(F)c1cc(F)cc(Oc2c(Cl)cc(NC(=O)Cc3cccc(S(C)(=O)=O)c3)cc2Cl)c1 [Example 53, N-(3,5-dichloro-4-(3-fluoro-5-(2-fluoropropan-2-yl)phenoxy)phenyl)-2-(3-(methylsulfonyl)phenyl)acetamide]
34 nM	COc1ccc(Oc2c(Cl)ccc(CNC(=O)Cc3ccc(S(C)(=O)=O)cc3)c2Cl)cc1C(C)C [Example 54]
16 nM	COc1ccc(Oc2c(Cl)ccc(CNS(=O)(=O)C3CCN(S(C)(=O)=O)CC3)c2Cl)cc1C(C)C [Example 57]
383 nM	COc1ccc(Oc2c(Cl)ccc(NC(=O)CC3CN(S(C)(=O)=O)C3)c2Cl)cc1C(C)C [Example 58]
139 nM	COc1ccc(Oc2c(Cl)ccc(CNC(=O)c3ccc(S(N)(=O)=O)cc3)c2Cl)cc1C(C)C [Example 60]
46 nM	COc1ccc(Oc2c(Cl)ccc(NC(=O)Cc3ccc(S(N)(=O)=O)cc3)c2Cl)cc1C(C)C [Example 61]
96 nM	COc1ccc(Oc2c(Cl)ccc(CNC(=O)c3ccc(S(C)(=O)=O)cc3Cl)c2Cl)cc1C(C)C [Example 62]

EC50	Structure (SMILES)
31 nM	COc1ccc(Oc2c(Cl)ccc(CNC(=O)C3CCN(S(N)(=O)=O)CC3)c2Cl)cc1C(C)C [Example 63]
23 nM	COc1ccc(Oc2c(Cl)ccc(C(=O)N(C)CC3(O)CCN(S(C)(=O)=O)CC3)c2Cl)cc1C(C)C [Example 64]
69 nM	COc1ccc(Oc2c(Cl)ccc(C(=O)N3CCN(S(C)(=O)=O)CC3)c2Cl)cc1C(C)C [Example 65]
268 nM	COc1ccc(Oc2c(Cl)ccc(N(C)C(=O)C(C)c3ccc(S(C)(=O)=O)cc3)c2Cl)cc1C(C)C (centres unmarked) [Example 66]
116 nM	COc1ccc(Oc2c(Cl)ccc(C(=O)N(C)Cc3ccc(S(C)(=O)=O)cc3)c2Cl)cc1C(C)C [Example 67]
15 nM	COc1ccc(Oc2c(Cl)ccc(C(=O)N3CC4(CCN(S(C)(=O)=O)CC4)C3)c2Cl)cc1C(C)C [Example 68]
481 nM	COc1ccc(Oc2c(Cl)ccc(C(=O)NC[C@H]3CC[C@H](C(=O)OC)CC3)c2Cl)cc1C(C)C [Example 69]
141 nM	COc1ccc(Oc2c(Cl)ccc(C(=O)NC[C@H]3CC[C@H](C(=O)O)CC3)c2Cl)cc1C(C)C [Example 70]
15 nM	C=C(C)c1cc(Oc2c(Cl)ccc(C(=O)NCC3CCN(S(C)(=O)=O)CC3)c2Cl)cnc1OC [Example 71]
33 nM	COc1ncc(Oc2c(Cl)ccc(C(=O)NCC3CCN(S(C)(=O)=O)CC3)c2Cl)cc1C(C)C [Example 72]
18 nM	C=C(C)c1cc(Oc2c(Cl)cc(NC(=O)CC3CCN(S(C)(=O)=O)CC3)cc2Cl)cnc1OC [Example 73]
49 nM	COc1ncc(Oc2c(Cl)cc(NC(=O)CC3CCN(C(=O)C(F)(F)F)CC3)cc2Cl)cc1C(C)C [Example 74]
33 nM	CC(C)c1cc(F)cc(Oc2c(Cl)ccc(NC(=O)Cc3ccc(S(C)(=O)=O)cc3)c2Cl)c1 [Example 75]
922 nM	COc1ccc(Oc2c(Cl)ccc(C(=O)NCCc3cccnc3)c2Cl)cc1C(C)C [Example 76]
953 nM	COC(=O)CNC(=O)c1ccc(Cl)c(Oc2ccc(OC)c(C(C)C)c2)c1Cl [Example 77]
1050 nM	COc1ccc(Oc2c(Cl)ccc(C(=O)N(C)C)c2Cl)cc1C(C)C [Example 78]
18 nM	COc1ccc(Oc2c(Cl)ccc(C(=O)NCc3ccc(S(C)(=O)=O)cc3)c2Cl)cc1C(C)C [Example 79]
287 nM	COc1ccc(Oc2c(Cl)ccc(C(=O)NCCCn3ccnc3)c2Cl)cc1C(C)C [Example 80]
1310 nM	COc1ccc(Oc2c(Cl)ccc(C(=O)NCCCCO)c2Cl)cc1C(C)C [Example 81]

EC50	Structure (SMILES)
7600 nM	COc1ccc(Oc2c(Cl)ccc(C(=O)NCc3cccc(S(C)(=O)=O)c3)c2Cl)cc1C(C)C [Example 82]
1170 nM	COc1ccc(Oc2c(Cl)ccc(C(=O)NCCN3CCCC3=O)c2Cl)cc1C(C)C [Example 83]
152 nM	COc1ccc(Oc2c(Cl)ccc(C(=O)NCCC3CCS(=O)(=O)CC3)c2Cl)cc1C(C)C [Example 84]
12 nM	COc1ccc(Oc2c(Cl)ccc(C(=O)NCC3CCN(S(C)(=O)=O)CC3)c2Cl)cc1C(C)C [Example 86]
541 nM	COc1ccc(Oc2c(Cl)ccc(CNC(=O)Cc3cccc(S(C)(=O)=O)c3)c2Cl)cc1C(C)C [Example 87]
24 nM	COc1ccc(Oc2c(Cl)ccc(CNC(=O)C3CN(S(C)(=O)=O)C3)c2Cl)cc1C(C)C [Example 88]
4080 nM	COc1ccc(Oc2c(Cl)ccc(CNC(=O)CN3CCNCC3)c2Cl)cc1C(C)C [Example 89]
13 nM	COc1ccc(Oc2c(Cl)ccc(CNC(=O)CN3CCN(S(N)(=O)=O)CC3)c2Cl)cc1C(C)C [Example 90]
88 nM	COc1ccc(Oc2c(Cl)ccc(C(=O)NCC3CN(S(C)(=O)=O)C3)c2Cl)cc1C(C)C [Example 91]
24 nM	COc1ccc(Oc2c(Cl)ccc(C(=O)NCC3CCN(S(=O)(=O)C4CC4)CC3)c2Cl)cc1C(C)C [Example 92]
167 nM	COc1ccc(Oc2c(Cl)ccc(C(=O)NCC3CCN(S(=O)(=O)C(C)C)CC3)c2Cl)cc1C(C)C [Example 93]
26 nM	CCS(=O)(=O)N1CCC(CNC(=O)c2ccc(Cl)c(Oc3ccc(OC)c(C(C)C)c3)c2Cl)CC1 [Example 94]
24 nM	COc1ccc(Oc2c(Cl)ccc(CNC(=O)C3CCN(S(=O)(=O)C(C)C)CC3)c2Cl)cc1C(C)C [Example 95]
13 nM	COc1ccc(Oc2c(Cl)ccc(C(=O)NCC3CCN(S(N)(=O)=O)CC3)c2Cl)cc1C(C)C [Example 96]
14 nM	COc1ccc(Oc2c(Cl)ccc(CNC(=O)C3CCN(S(=O)(=O)C4CC4)CC3)c2Cl)cc1C(C)C [Example 97]
20 nM	COc1ccc(Oc2c(Cl)ccc(CNS(=O)(=O)C3CCN(S(N)(=O)=O)CC3)c2Cl)cc1C(C)C [Example 98]
153 nM	COc1ccc(Oc2c(Cl)ccc(C(=O)NCc3ccc(S(=O)(=O)N(C)C)nc3)c2Cl)cc1C(C)C [Example 99]
117 nM	COc1ccc(Oc2c(Cl)ccc(C(=O)NCC3CCS(=O)(=O)CC3)c2Cl)cc1C(C)C [Example 100]

From patent US20220306630A1, “AGONISTS OF ROR GAMMAt” (BRISTOL-MYERS SQUIBB COMPANY, priority 2019, published 2022)
